Measurements from patent US6914045B2, “Glycopeptide antibiotics” (Wyeth Holdings Corporation, priority 2001, dated 2005).
Values after ≈ are worked out from the molar mass of the structure shown.

What was measured:
Assay in all cases: in vitro antibacterial evaluation, MIC by broth dilution
Type in all cases: cell-based
Escherichia coli = tested on: Escherichia coli
Summary of the method: (§1)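 Broth dilution per NCCLS M7-A2 in Mueller-Hinton II medium, inoculum 5×10^5 CFU/mL, antibiotic range 64-0.06 μg/mL. MIC taken as lowest concentration inhibiting growth; Gram-positive panel includes recent clinical isolates resistant to methicillin, penicillin and/or vancomycin.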

Streptococcus sp. = conditions: broth dilution, 18 hours at 35° C.
Summary of the method: as §1

Enterococcus sp. = conditions: broth dilution, 18 hours at 35° C.
Summary of the method: as §1

Staphylococcus sp. = conditions: broth dilution, 18 hours at 35° C.; for MIC Staphylococcus aureus (GC 1131): strain GC 1131
Summary of the method: as §1

MIC Escherichia coli (ATCC 25922) (Escherichia coli; strain ATCC 25922, 18 hours at 35° C.): 64 µg/mL (≈ 43.9 µM)
MIC Escherichia coli (GC 4559) (Escherichia coli; strain GC 4559, 18 hours at 35° C.): 64 µg/mL (≈ 43.9 µM)
MIC Streptococcus agalactiae (GC 4564) (Streptococcus sp.; Streptococcus agalactiae (GC 4564)): 0.5 µg/mL (≈ 0.343 µM)
MIC Streptococcus pneumoniae (ATCC 6301) (Streptococcus sp.; Streptococcus pneumoniae (ATCC 6301)): <0.06 µg/mL
MIC Streptococcus pneumoniae (GC 1894) (Streptococcus sp.; Streptococcus pneumoniae (GC 1894)): <0.06 µg/mL
MIC Streptococcus pneumoniae (GC 4565) (Streptococcus sp.; Streptococcus pneumoniae (GC 4565)): <0.06 µg/mL
MIC Streptococcus pyogenes (GC 4563) (Streptococcus sp.; Streptococcus pyogenes (GC 4563)): 0.25 µg/mL (≈ 0.171 µM)
MIC Streptococcus pneumoniae (ATCC 6301) (Streptococcus sp.; strain ATCC 6301): <0.06 µg/mL
MIC Streptococcus pneumoniae (GC 1894) (Streptococcus sp.; strain GC 1894): <0.06 µg/mL
MIC Streptococcus pyogenes (GC 4563) (Streptococcus sp.; strain GC 4563): 0.25 µg/mL (≈ 0.171 µM)
MIC Streptococcus agalactiae (GC 4564) (Streptococcus sp.; strain GC 4564): 0.5 µg/mL (≈ 0.343 µM)
MIC Streptococcus pneumoniae (GC 4565) (Streptococcus sp.; strain GC 4565): <0.06 µg/mL
MIC Enterococcus avium (GC 4558) (Enterococcus sp.; Enterococcus avium (GC 4558)): 8 µg/mL (≈ 5.49 µM)
MIC Enterococcus faecalis (ATCC 29212) (Enterococcus sp.; Enterococcus faecalis (ATCC 29212)): 8 µg/mL (≈ 5.49 µM)
MIC Enterococcus faecalis (GC 2242) (Enterococcus sp.; Enterococcus faecalis (GC 2242)): 4 µg/mL (≈ 2.74 µM)
MIC Enterococcus faecalis (GC 2691) (Enterococcus sp.; Enterococcus faecalis (GC 2691)): 8 µg/mL (≈ 5.49 µM)
MIC Enterococcus faecalis (GC 3059) (Enterococcus sp.; Enterococcus faecalis (GC 3059)): 8 µg/mL (≈ 5.49 µM)
MIC Enterococcus faecalis (GC 4552) (Enterococcus sp.; Enterococcus faecalis (GC 4552)): 8 µg/mL (≈ 5.49 µM)
MIC Enterococcus faecalis (GC 4553) (Enterococcus sp.; Enterococcus faecalis (GC 4553)): 8 µg/mL (≈ 5.49 µM)
MIC Enterococcus faecalis (GC 4554) (Enterococcus sp.; Enterococcus faecalis (GC 4554)): 8 µg/mL (≈ 5.49 µM)
MIC Enterococcus faecalis (GC 6189) (Enterococcus sp.; Enterococcus faecalis (GC 6189)): 4 µg/mL (≈ 2.74 µM)
MIC Enterococcus faecium (GC 2243) (Enterococcus sp.; Enterococcus faecium (GC 2243)): 4 µg/mL (≈ 2.74 µM)
MIC Enterococcus faecium (GC 4556) (Enterococcus sp.; Enterococcus faecium (GC 4556)): 4 µg/mL (≈ 2.74 µM)
MIC Enterococcus faecium (GC 4557) (Enterococcus sp.; Enterococcus faecium (GC 4557)): 2 µg/mL (≈ 1.37 µM)
MIC Enterococcus faecalis (ATCC 29212) (Enterococcus sp.; strain ATCC 29212): 8 µg/mL (≈ 5.49 µM)
MIC Enterococcus faecalis (GC 2242) (Enterococcus sp.; strain GC 2242): 4 µg/mL (≈ 2.74 µM)
MIC Enterococcus faecium (GC 2243) (Enterococcus sp.; strain GC 2243): 4 µg/mL (≈ 2.74 µM)
MIC Enterococcus faecalis (GC 2691) (Enterococcus sp.; strain GC 2691): 8 µg/mL (≈ 5.49 µM)
MIC Enterococcus faecalis (GC 3059) (Enterococcus sp.; strain GC 3059): 8 µg/mL (≈ 5.49 µM)
MIC Enterococcus faecalis (GC 4552) (Enterococcus sp.; strain GC 4552): 8 µg/mL (≈ 5.49 µM)
MIC Enterococcus faecalis (GC 4553) (Enterococcus sp.; strain GC 4553): 8 µg/mL (≈ 5.49 µM)
MIC Enterococcus faecalis (GC 4554) (Enterococcus sp.; strain GC 4554): 8 µg/mL (≈ 5.49 µM)
MIC Enterococcus faecium (GC 4556) (Enterococcus sp.; strain GC 4556): 4 µg/mL (≈ 2.74 µM)
MIC Enterococcus faecium (GC 4557) (Enterococcus sp.; strain GC 4557): 2 µg/mL (≈ 1.37 µM)
MIC Enterococcus avium (GC 4558) (Enterococcus sp.; strain GC 4558): 8 µg/mL (≈ 5.49 µM)
MIC Enterococcus faecalis (GC 6189) (Enterococcus sp.; strain GC 6189): 4 µg/mL (≈ 2.74 µM)
MIC Staphylococcus aureus (GC 1131) (Staphylococcus sp.; inoculum 5×10^5 CFU/mL): 2 µg/mL (≈ 1.37 µM)
MIC Staphylococcus aureus (ATCC 29213) (Staphylococcus sp.; strain ATCC 29213): 2 µg/mL (≈ 1.37 µM)
MIC Staphylococcus aureus (GC 1131) (Staphylococcus sp.): 2 µg/mL (≈ 1.37 µM)
MIC Staphylococcus aureus (GC 3051) (Staphylococcus sp.; strain GC 3051): 2 µg/mL (≈ 1.37 µM)
MIC Staphylococcus aureus (GC 3053) (Staphylococcus sp.; strain GC 3053): 4 µg/mL (≈ 2.74 µM)
MIC Staphylococcus aureus (GC 4541) (Staphylococcus sp.; strain GC 4541): 2 µg/mL (≈ 1.37 µM)
MIC Staphylococcus aureus (GC 4542) (Staphylococcus sp.; strain GC 4542): 2 µg/mL (≈ 1.37 µM)
MIC Staphylococcus aureus-SMITH (GC 4543) (Staphylococcus sp.; strain GC 4543): 1 µg/mL (≈ 0.686 µM)
MIC Staphylococcus aureus (GC 4544) (Staphylococcus sp.; strain GC 4544): 2 µg/mL (≈ 1.37 µM)
MIC Staphylococcus aureus (GC 4545) (Staphylococcus sp.; strain GC 4545): 2 µg/mL (≈ 1.37 µM)
MIC Coagulase Negative Staphylococcus (GC 4547) (Staphylococcus sp.; strain GC 4547): 1 µg/mL (≈ 0.686 µM)
MIC Coagulase Negative Staphylococcus (GC 4548) (Staphylococcus sp.; strain GC 4548): 0.5 µg/mL (≈ 0.343 µM)
MIC Coagulase Negative Staphylococcus (GC 4549) (Staphylococcus sp.; strain GC 4549): 0.5 µg/mL (≈ 0.343 µM)
MIC Coagulase Negative Staphylococcus (GC 4551) (Staphylococcus sp.; strain GC 4551): 2 µg/mL (≈ 1.37 µM)
MIC Coagulase Negative Staphylococcus (GC 6257) (Staphylococcus sp.; strain GC 6257): 0.5 µg/mL (≈ 0.343 µM)
MIC Staphylococcus aureus-SMITH (GC 4543) (Staphylococcus sp.; strain SMITH GC 4543): 1 µg/mL (≈ 0.686 µM)
Compound: COc1cc(C2OCC3OC(OC4C(CO)OC(Oc5ccc(CC6NC(=O)C(C(C)c7ccccc7)NC(=O)CNC(=O)C(CO)NC(=O)C(C(O)C7CNC(=N)N7C7OC(CO)C(O)C(O)C7O)NC(=O)C(C(O)C7CNC(=N)N7)NC6=O)cc5)C(O)C4O)C(O)C(O)C3O2)ccc1[N+](=O)[O-] (centres unmarked) [Example 153]
MIC Staphylococcus haemolyticus (GC 4546) (Staphylococcus sp.; strain GC 4546): 1 µg/mL (≈ 0.686 µM)
